Counter-ions that a name gives are not always drawn.
Experiments:
[1] = test system: ddY male mice, reserpine-induced immobility; experiment: Activity on reserpine-induced immobility (open-field method); format: in vivo, mouse; settings: reserpine 2 mg/kg, total of 1-min counts at 15, 30, 45, 60 min, ***p < 0.001
Method: Reserpine was administered intraperitoneally to ddY male mice (4 week old) at a dose of 2 mg/kg, and, after 18 to 20 hours, the test compound was administered intraperitoneally to the mice. Thereafter, the ambulation (the number of times of the animal crossed the demarcation line) of the mice was counted for a period of 1 minute at 15, 30, 45 and 60 minutes after the administration of the test compound, respectively, according to the open-field method. The total number of ambulation determined at 4 times in each mouse and compared with that of the control.

[2] = J. Affect. Disord., Vol. 1, 173 (1979); cited from earlier work
[3] = test system: unanesthetized spontaneously hypertensive rats; experiment: Anti-hypertensive activity, systolic blood pressure, tail cuff method; format: in vivo, rat; settings: 10 mg/kg oral
Method: (§1) The anti-hypertensive activity of the compounds was determined by the tail cuff method using unanesthetized spontaneously hypertensive rats weighing 300 to 350 g (21 to 25 week old). In this experiment, the systolic blood pressure was determined by the bloodless method using a hemodynamometer. The heart rate was determined simultaneously using a sphygmometer connected to the pulse output. After rats were placed under condition of 40° C. for 10 minutes, the blood pressure was determined by holding the rats in a holder. The test compounds were suspended in a 0.5 wt% aqueous gum arabic. Hydralazine hydrochloride used as a comparative agent was administered as an aqueous solution thereof. The volume of oral administration was 0.5 ml per 100 g of body weight.

[4] = test system: unanesthetized spontaneously hypertensive rats; experiment: Heart rate determined simultaneously with blood pressure (sphygmometer connected to the pulse output); format: in vivo, rat; settings: for Changes in Heart Rate: 10 mg/kg oral
Method: as §1

[5] = test system: human; settings: in human, side-effect; cited from earlier work
[6] = test system: Rats, pylorus portion ligated (gastric secretion); experiment: Gastric secretion inhibitory activity in pylorus-ligated rats; format: in vivo, rat
Method: Rats weighing 200 to 250 g (8 rats per group) which have been fasting for 24 hours before testing were subjected to abdominal section under ether anesthesia, and the pylorus portion was ligated. Immediately after ligation, the test compound was administered into the duodenum as a suspension in a 5 wt% aqueous gum arabic at a volume of 2 ml/kg. The rats were sacrificed after 6 hours, and the stomach was extracted. The gastric juice was collected to determine the volume thereof, and the acidity of the gastic juice was titrated to a pH 7.0 with a 0.02N aqueous sodium hydroxide solution using a pH meter. The acid secretion amount per 6 hours (μEq/6 h) was calculated by (volume of gastric juice×acidity of gastric juice).

[7] = test system: Donryu male rats, indomethacin ulcer; experiment: Anti-ulcer activity, indomethacin-induced ulcer; format: in vivo, rat; settings: for Ulcer Index Inhibition / Ulcer Index: indomethacin 25 mg/kg; for Anti-ulcer activity (in words): Table 4
Method: The test compound was administered orally to Donryu male rats weighing 240 to 300 g (7 rats per group) which have been fasting for 24 hours before testing, and, after 30 minutes, indomethacin was administered orally to the rats at a dose of 25 mg/kg. The rats were then maintained for 7 hours without feeding water and foods and then sacrificed. The stomach was extracted and fixed by infusing 7.5 ml of a 2% formalin solution into the stomach. The stomach was incised along the greater curvature thereof, and length (mm) of each ulcer generated in gastric glands was determined. The total length of the ulcer per rat was expressed in terms of an ulcer index.
In this experiment, the test compound was suspended in a 0.5% aqueous gum arabic and administered at a volume of 5 ml/kg. Indomethacin (manufacturedby Sigma Co., Ltd.) was administered as a 0.5 wt% aqueous suspension in sodium carboxymethyl cellulose at a volume of 5 ml/kg. As a control, a 0.5 wt% suspension of aqueous gum arabic was orally administered at a volume of 5 ml/kg.

[8] = test system: Rats with unilateral 6-hydroxydopamine lesion of the substantia nigra; experiment: Rotational activity in rats with unilateral 6-hydroxydopamine lesion of the substantia nigra; format: in vivo, rat
Method: Rats under pentobarbital sodium anesthesia (50 mg/kg, i.p.) were fixed on an apparatus for fixing brain, and 6-hydroxydopamine (8 μg/4 μl) was injected in the substantia nigra (A:3.0, L:2.6, D:7.8) according to Pellegrino & Cushman's atlas. Seven days after the injection of 6-hydroxydopamine, apomorphine was administered subcutaneously at a dose of 0.25 mg/kg, and the rats showing […] rotating movement to one side opposite to the destroyed side were selected. After 7 days, the test compound was administered intraperitoneally and, thereafter, rotating movement of the rats was observed over 1 minute at an interval of 5 minutes during a period of 60 minutes.

[9] = test system: ddY male mice, KCN-induced anoxia; experiment: Activity on KCN-induced anoxia in mice; format: in vivo, mouse
[10] = 100 mg/kg into the duodenum, 6 hours
[11] = 10 mg/kg into the duodenum, 6 hours

Question: Which results are given for CC(C)C[C@H]1C(=O)N2CCC[C@H]2[C@]2(O)O[C@](NC(=O)[C@@H]3C=C4c5cccc6[nH]c(Br)c(c56)C[C@H]4N(C)C3)(C(C)C)C(=O)N12 [Bromocriptine Methanesulfonate]?
Answer: Ambulation ([1]; 10 mg/kg i.p., n = 6): 36.7 ± 12.3; Anti-depressive activity (known) [2]: has been known to have an anti-depressive activity

Question: What does the source list for NNc1nncc2ccccc12 [Hydralazine Hydrochloride, reference compound]?
Answer: Changes in Systolic Blood Pressure ([3]; 1 hr after administration): -47 Δ mmHg; Changes in Systolic Blood Pressure ([3]; 2 hrs after administration): -52 Δ mmHg; Changes in Systolic Blood Pressure ([3]; 4 hrs after administration): -67 Δ mmHg; Changes in Systolic Blood Pressure ([3]; 6 hrs after administration): -41 Δ mmHg; Changes in Systolic Blood Pressure ([3]; 24 hrs after administration): -22 Δ mmHg; Changes in Heart Rate ([4]; 1 hr after administration): 65 Δ/min.; Changes in Heart Rate ([4]; 2 hrs after administration): 66 Δ/min.; Changes in Heart Rate ([4]; 4 hrs after administration): 75 Δ/min.; Changes in Heart Rate ([4]; 6 hrs after administration): 64 Δ/min.; Changes in Heart Rate ([4]; 24 hrs after administration): 44 Δ/min.; Heart rate effect (in words) ([4]; Table 2): a marked increase in heart rate; Tachycardia [5]: exhibited tachycardia in human as one of side-effects

Question: Which “Volume of Acid Secreted” value ([6]; 100 mg/kg into the duodenum) does the source give for CN=C(NC#N)NCCSCc1nc[nH]c1C [Cimetidine, 1-cyano-2-methyl-3-[2-[[(5-methylimidazole-4-yl)methyl]thio]ethyl]guanidine, reference compound] here?
Answer: 142.5 ± 60.5 μEq/6 h

Question: What about the “Volume of Acid Secreted, Inhibition” value [6, 10] of the same molecule?
Answer: 66.2%

Question: And the “Volume of Gastric Juice, Inhibition” value [6, 10]?
Answer: 60.2%

Question: What about the “Ulcer Index Inhibition” value ([7]; 100 mg/kg oral) of the same molecule?
Answer: 53.7%

Question: And the “Ulcer Index” value ([7]; 100 mg/kg oral, **p < 0.01)?
Answer: 28.3 ± 8.4 mm

Question: Which results are given for CN1CCc2cccc3c2[C@H]1Cc1ccc(O)c(O)c1-3 [Apomorphine Hydrochloride, reference compound]?
Answer: Ambulation ([1]; 3 mg/kg i.p., n = 10): 71.0 ± 7.0; Number of Rotating Movement over 60 min. ([8]; 0.5 mg/kg i.p.): 147

Question: Which results are given for CN1C[C@H](CN2CCOC2=O)C[C@@H]2c3cccc4[nH]cc(c34)C[C@H]21 [Example 2, 3-(6-Methylergolin-8β-ylmethyl)oxazolidin-2-one]?
Answer: Changes in Systolic Blood Pressure ([3]; 1 hr after administration): -64 Δ mmHg; Changes in Systolic Blood Pressure ([3]; 2 hrs after administration): -36 Δ mmHg; Changes in Systolic Blood Pressure ([3]; 4 hrs after administration): -37 Δ mmHg; Changes in Systolic Blood Pressure ([3]; 6 hrs after administration): -52 Δ mmHg; Changes in Systolic Blood Pressure ([3]; 24 hrs after administration): -11 Δ mmHg; Changes in Heart Rate ([4]; 1 hr after administration): -39 Δ/min.; Changes in Heart Rate ([4]; 2 hrs after administration): -74 Δ/min.; Changes in Heart Rate ([4]; 4 hrs after administration): -58 Δ/min.; Changes in Heart Rate ([4]; 6 hrs after administration): -56 Δ/min.; Changes in Heart Rate ([4]; 24 hrs after administration): -23 Δ/min.; Volume of Acid Secreted, Inhibition [6, 11]: 70.8%; Volume of Gastric Juice, Inhibition [6, 11]: 63.3%; Total Acidity ([6]; 10 mg/kg into the duodenum, 6 hours, *p < 0.05): 61.4 ± 7.5 mEq/liter; Ulcer Index Inhibition ([7]; 10 mg/kg oral): 92.7%; Ulcer Index ([7]; 10 mg/kg oral, ***p < 0.001): 4.4 ± 2.3 mm; Survival Time ([9]; 10 mg/kg i.p., KCN 2.5 mg/kg i.v., **p < 0.01, ***p < 0.001, survivors counted as 180 sec): 144.4 ± 17.6 s; Number of Survived Mice/Total Mice ([9]; 10 mg/kg i.p., KCN 2.5 mg/kg i.v., survived longer than 3 minutes): 5/8; Brain protection activity (in words) ([9]; Table 5): exhibited the activity higher that that of dihydroergotoxine methanesulfonate

Question: What does the source list for CN1C[C@H](Cn2cncn2)C[C@@H]2c3cccc4[nH]cc(c34)C[C@H]21 [Example 6, 1-(6-Methylergolin-8β-ylmethyl)-1,2,4-triazole]?
Answer: Changes in Systolic Blood Pressure ([3]; 1 hr after administration): -64 Δ mmHg; Changes in Systolic Blood Pressure ([3]; 2 hrs after administration): -67 Δ mmHg; Changes in Systolic Blood Pressure ([3]; 4 hrs after administration): -62 Δ mmHg; Changes in Systolic Blood Pressure ([3]; 6 hrs after administration): -65 Δ mmHg; Changes in Systolic Blood Pressure ([3]; 24 hrs after administration): -14 Δ mmHg; Changes in Heart Rate ([4]; 1 hr after administration): -8 Δ/min.; Changes in Heart Rate ([4]; 2 hrs after administration): -30 Δ/min.; Changes in Heart Rate ([4]; 4 hrs after administration): -33 Δ/min.; Changes in Heart Rate ([4]; 6 hrs after administration): -21 Δ/min.; Changes in Heart Rate ([4]; 24 hrs after administration): -10 Δ/min.; Ambulation ([1]; 10 mg/kg i.p., n = 6): 198.8 ± 32.2; Duration of increase in spontaneous movement and sniffing ([8]; 10 mg/kg i.p.): more than 5 hours; Number of Rotating Movement over 60 min. ([8]; 10 mg/kg i.p.): 0; Spontaneous movement and sniffing ([8]; 10 mg/kg i.p.): Increase in spontaneous movement and sniffing occurred markedly

Question: With NC[C@H]1CC[C@H](C(=O)Oc2ccc(CCC(=O)O)cc2)CC1 [Cetraxate, p-hydroxyhydrocinnamic acid trans-(4-aminomethyl)cyclohexane carboxylate] as the molecule, how does the “Ulcer Index Inhibition” value ([7]; 100 mg/kg oral) read?
Answer: 14.9%

Question: What about the “Ulcer Index” value ([7]; 100 mg/kg oral, **p < 0.01) of the same molecule?
Answer: 52.1 ± 8.7 mm

Question: What about the “Anti-ulcer activity (in words)” value [7] of the same molecule?
Answer: did not show any significant anti-ulcer activity

Question: With CC(C)=CCOc1ccc(/C=C/C(=O)c2ccc(OCC=C(C)C)cc2OCC(=O)O)cc1 [Sofalcone] as the molecule, how does the “Ulcer Index Inhibition” value ([7]; 100 mg/kg oral) read?
Answer: 3.4%

Question: And the “Ulcer Index” value ([7]; 100 mg/kg oral, **p < 0.01)?
Answer: 59.2 ± 10.5 mm

Question: And the “Anti-ulcer activity (in words)” value [7]?
Answer: did not show any significant anti-ulcer activity
